Converted amounts (≈) assume the structure as drawn. Where two headings read alike, the source gives them in different places.
Experiment: Measurement of the solubilization of active ingredients by amphiphiles
Format: physicochemical
Settings: thermodynamic from solid
Source text: After a rest time of one hour, excess (i.e. unsolubilized) active ingredient was removed by centrifuging. The resulting clear or opaque solution was subsequently analyzed for its active ingredient content by means of UV spectroscopy. The wavelengths of the UV spectroscopy measurement are compiled in table 1.

[1] = distilled water without polymer, room temperature, stirred 24 h, UV spectroscopy, read-out: Solubility of active ingredient, no polymer (noninventive)

Row | SMILES | solubility at 24 h [1] [µg/mL] | solubility at 24 h (water) [µg/mL]
1 | CN1C(C(=O)Nc2ccccn2)=C(O)c2ccccc2S1(=O)=O [Piroxicam] | 21 (≈ 63.4 µM) | 
2 | NC(=O)N1c2ccccc2C=Cc2ccccc21 [Carbamazepine] | 140 (≈ 593 µM) | 
3 | N#Cc1nn(-c2c(Cl)cc(C(F)(F)F)cc2Cl)c(N)c1[S+]([O-])C(F)(F)F (stereo not shown) [Fipronil] |  | 3 (≈ 6.86 µM)
4 | COC(=O)N(OC)c1ccccc1COc1ccn(-c2ccc(Cl)cc2)n1 [Pyraclostrobin] | 22.5 (≈ 58 µM) | 
